Source: US20240002441A1, “PEPTIDES AND USES THEREOF IN MODULATION OF AMYLOID-BETA PROTEIN DEGRADING PROTEASES” (priority 2020, published 2024)

What was measured:
[1] = system: HEK293 cells; test: Peptide stability study in HEK293 cells, LCMS (Example 4); format: in vitro ADME; conditions: peptide 9 μM, Opti-MEM, 60 min
Protocol: (§1) SEQ ID NO:2 was prepared as a C-terminal amidated analogue of SEQ ID NO:1. The stability of SEQ ID NO:1 and SEQ ID NO:2 was assessed in HEK293 and EA.hy926 cells grown in culture and their break down was monitored by LCMS over 60 min using the following procedure.
(§2) HEK293 (passage 24) or Ea.hy926 (passage 37) were seeded into tissue-culture-grade 96-well plates at a density of 20,000 cells/well. After 24 hr, cells were washed with PBS and replaced with Opti-MEM reduced serum media containing SEQ ID NO:1 or SEQ ID NO:2 (9 μM). Aliquots of equal volume were taken at T=0 and 60 min. SEQ ID NO:2 was added to control wells having media (no cells) only. Samples were immediately acidified in 0.1% TFA, snap frozen in dry ice and stored in −80° C. until analysed by LCMS.
(§3) Samples were analyzed by LC-MS/MS on a Shimadzu Nexera uHPLC (Japan) coupled to a Triple Tof 5600 mass spectrometer (ABSCIEX, Canada) equipped with a duo electrospray ion source. One μL of each extract was injected onto a 2.1 mm×100 mm Zorbax C18 1.8 um column (Agilent) at 200 μL/min. […] SEQ ID NO:1 and SEQ ID NO:2 were quantified using the […] doubly charged molecular ion from m/z 510.270 to 510.325. The data was acquired using Analyst TF 1.6 and quantification was carried out using MultiQuant 2.1.1 software (ABSCIEX, Canada).

[2] = system: EA.hy926 cells; test: Peptide stability study in EA.hy926 endothelial cells, LCMS (Example 4); format: in vitro ADME; conditions: peptide 9 μM, Opti-MEM
Protocol: as §1, §2, §3

[3] = target: T1, NEP (Homo sapiens, UniProt P08473); test: QFS plate reader enzyme assay, peptide screen on NEP activity (Example 3); format: biochemical; conditions: peptide 10 ng/μL, NEP 0.05 ng/μL, 1 h at 37° C.; compared to enzyme alone
T1 construct: purchased R & D systems 1182-ZNC-010
Protocol: (§4) Plate reader-based enzyme assays were performed using a quenched fluorescent substrate (QFS) in a 96-well format using a SpectraMAX M4 Microplate reader (Molecular Devices). The increase in fluorescence following addition of QFS (40 μM) was taken as evidence of enzyme activity. Fluorescence was monitored over 2 h at 37° C. using κEx=320 nm and λEm=405 nm. Assays were conducted in black 96-well plates. Specific enzyme activity was expressed as a rate of substrate cleavage calculated using a standard curve of 7-methoxy-coumarin-4-acetic acid.
(§5) In all plate reader-based enzyme assays using QFS, the reaction rate (μmol of substrate cleaved/min) was calculated using linear regression analysis (GraphPad Prism software version 8.01). The reaction rates calculated were used to generate the enzyme kinetic parameters Vmax and Km through non-linear regression analysis (GraphPad Prism software, version 8.01; Michaelis-Menten equation). Where indicated, enzyme activity in the presence of peptide was expressed as a % of the enzyme alone. Data were expressed as mean±SEM and statistical significance was determined using t-tests or one-way ANOVAs followed by Tukey's post-hoc test. P<0.05 was considered as statistically significant. In all assays conducted using 96-well plates, the reaction mixtures in each well were considered an independent experiment.
(§6) SEQ ID NOS: 1, 5 and 9-15 were screened for their effects on NEP and ECE1 using a high-throughput QFS assay using the method in Example 2 and the following procedure. NEP or ECE1 (0.05 ng/μL) was incubated with each peptide (10 ng/μL) for 1 h at 37° C.

[4] = target: T2, ECE1 (Homo sapiens, UniProt P42892); test: QFS plate reader enzyme assay, peptide screen on ECE1 activity (Example 3); format: biochemical; conditions: peptide 10 ng/μL, ECE1 0.05 ng/μL, 1 h at 37° C.; compared to enzyme alone
T2 construct: purchased R & D systems 1784-ZN-010
T2 sequence (P42892 1-770): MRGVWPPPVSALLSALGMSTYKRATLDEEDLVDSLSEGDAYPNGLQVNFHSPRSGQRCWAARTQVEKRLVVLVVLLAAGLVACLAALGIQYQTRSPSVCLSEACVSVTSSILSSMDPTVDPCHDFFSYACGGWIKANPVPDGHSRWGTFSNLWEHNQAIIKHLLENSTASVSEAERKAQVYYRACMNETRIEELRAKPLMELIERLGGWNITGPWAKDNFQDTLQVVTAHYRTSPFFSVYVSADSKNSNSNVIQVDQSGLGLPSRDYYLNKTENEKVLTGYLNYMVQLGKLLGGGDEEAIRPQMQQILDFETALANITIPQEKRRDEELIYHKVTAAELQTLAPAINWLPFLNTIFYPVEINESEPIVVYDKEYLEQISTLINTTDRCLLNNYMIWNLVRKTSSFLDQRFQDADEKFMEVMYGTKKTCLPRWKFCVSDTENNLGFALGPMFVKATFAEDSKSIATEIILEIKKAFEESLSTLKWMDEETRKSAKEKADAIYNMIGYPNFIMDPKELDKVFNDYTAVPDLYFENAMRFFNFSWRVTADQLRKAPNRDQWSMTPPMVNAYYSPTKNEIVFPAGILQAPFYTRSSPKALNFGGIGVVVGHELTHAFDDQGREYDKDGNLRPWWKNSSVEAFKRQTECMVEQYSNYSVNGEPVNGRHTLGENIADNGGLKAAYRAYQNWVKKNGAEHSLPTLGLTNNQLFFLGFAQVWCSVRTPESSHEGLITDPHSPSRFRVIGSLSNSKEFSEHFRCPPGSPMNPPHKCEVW
Protocol: as §4, §5, §6

[5] = system: Ang II-induced expression of IL-6 and Collagen III in EA.hy926 cells; test: Ang II-induced expression of IL-6 and Collagen III in EA.hy926 cells, western blotting (Example 9); format: cell-based
Protocol: EA.hy926 cells (passage 40) were seeded at a density of 1×10^6 cells/mL. After 24 hours, cells were incubated overnight in reduced serum media. Cells were then treated over 24 h as follows: • 1. Vehicle control • 2. Ang II (10 nM) • 3. […] Ang II (10 nM)+rhACE2 (0.05 ng/μL) • 5.
Following incubation, cells were lysed using lysis buffer (Thermo Fisher Scientific, Cat #89900) containing 1% protease inhibitor (Thermo Fisher Scientific, Cat #1861278). Cell lysate was centrifuged at 13,000 rpm for 10 min. Protein concentration in the supernatant was determined by NanoDrop (Thermo Fisher Scientific, Cat #ND-1000). Supernatants were stored at −30° C. until analysed.
Samples were diluted in SDS-PAGE reducing sample buffer (Bio-Rad Laboratories, Cat #1610747; California, USA) containing 1% β-mercaptoethanol (Bio-Rad Laboratories, Cat #221610710) to reach a final concentration of […]. Prior to loading, samples were heated at 95° C. for 5 min. Samples were loaded into the wells alongside the molecular weight marker (Life Technologies, Cat #LC5800; California, USA). Electrophoresis was conducted at 200 V for 40 min in 1× running buffer. Following protein separation by SDS-PAGE, proteins were blotted onto nitrocellulose membranes at 100 V for 1 h in 1× transfer buffer. The membranes were then blocked in 5% skim milk in 1× Tris-buffered saline (TBST) containing 0.05% Tween 20 (Thermo Fisher Scientific, Cat #28352) for 1 h at room temperature. The membranes were incubated with IL-6 (1:500; Thermo Fisher Scientific, Cat #700480) or collagen III (1:500; Invitrogen, Cat #PA5-27828) primary antibodies while rocking at 4° C. overnight. Membranes were then probed with secondary antibody conjugated with horseradish peroxidase (HRP) (1:6000) for 1 h at room temperature. The HRP-labelled proteins were detected using chemiluminescence SuperSignal™ ECL Western Blotting Substrate (Thermo Fisher Scientific, Cat #34577) at 1:1 ratio. Beta-actin was used as a loading control. Protein bands were analysed using ImageJ (version 1.51) and band density was normalised with the respective beta-actin.

[6] = target: T2, ECE1; conditions: Smith A I et al., (2016) Scientific reports 6:22413; cited from earlier work
[7] = target: T1, NEP; conditions: Smith A I et al., (2016) Scientific reports 6:22413; cited from earlier work
[8] = target: T1, NEP; test: Cleavage of synthetic Aβ40 by NEP, LCMS (Example 7); format: biochemical; conditions: peptide 9 μM
Protocol: Synthetic Aβ40 (0.10 μg/μL) was added to a reaction mixture containing NEP (0.05 ng/μL) pre-incubated with SEQ ID NO:2 or scrambled control (9 μM) for 1 h at 37° C. Synthetic Aβ42 (0.05 μg/μL) was added to a reaction mixture containing NEP (0.15 ng/μL) preincubated with either scrambled control or SEQ ID NO:2 (9 μM) for 1 h at 37° C. Samples containing enzyme alone had only NEP buffer (Table 2). The cleavage reaction was allowed to continue in a thermomixer at 37° C. Aliquots of equal volume were taken over 24 h. Aliquots were immediately acidified with 0.1% trifluoroacetic acid (TFA) to terminate enzyme activity and snap frozen in dry ice. Samples were stored at −80° C. until analysed by LCMS.
Samples were analysed by LC-MS/MS using a quadrupole TOF mass spectrometer (MicroTOFq, Bruker Daltonics, Bremen, Germany) coupled online with a 1200 series nano-HPLC (Agilent technologies, Santa Clara, CA, USA). Samples were injected onto a zorbax 300SB reversed phase trap column with 95% solvent A (0.1% formic acid) at a flow rate of 10 μL/minute. The peptides were eluted over a 10-min gradient to 70% solvent B (80% acetonitrile, 0.1% formic acid) and separated on a 15-cm, 75-μmID zorbax 300SB nanocolumn. The eluent was nebulised and ionised using the Bruker nano-ESI source with a capillary voltage of 4500 V, dry gas at 180° C., flow rate of 5 L/minute and nebuliser gas pressure at 300 mbar. The MS acquisition was in selected ion monitoring mode after selected ion extraction of the MS spectra. Prior to analysis, the qTOF mass spectrometer was calibrated using a 1:50 dilution tuning mix (Agilent technologies, Santa Clara, CA, USA). Data from MS run were processed in Skyline version 19.1.0.193 (Uni. Of Washington, WA, USA) to perform ion chromatogram extractions and peak integrations.

[9] = Ang II 10 nM + peptide 26 μM + rhACE2 0.05 ng/μL + MLN-4760 10 μM

T1 sequence (P08473 whole entry): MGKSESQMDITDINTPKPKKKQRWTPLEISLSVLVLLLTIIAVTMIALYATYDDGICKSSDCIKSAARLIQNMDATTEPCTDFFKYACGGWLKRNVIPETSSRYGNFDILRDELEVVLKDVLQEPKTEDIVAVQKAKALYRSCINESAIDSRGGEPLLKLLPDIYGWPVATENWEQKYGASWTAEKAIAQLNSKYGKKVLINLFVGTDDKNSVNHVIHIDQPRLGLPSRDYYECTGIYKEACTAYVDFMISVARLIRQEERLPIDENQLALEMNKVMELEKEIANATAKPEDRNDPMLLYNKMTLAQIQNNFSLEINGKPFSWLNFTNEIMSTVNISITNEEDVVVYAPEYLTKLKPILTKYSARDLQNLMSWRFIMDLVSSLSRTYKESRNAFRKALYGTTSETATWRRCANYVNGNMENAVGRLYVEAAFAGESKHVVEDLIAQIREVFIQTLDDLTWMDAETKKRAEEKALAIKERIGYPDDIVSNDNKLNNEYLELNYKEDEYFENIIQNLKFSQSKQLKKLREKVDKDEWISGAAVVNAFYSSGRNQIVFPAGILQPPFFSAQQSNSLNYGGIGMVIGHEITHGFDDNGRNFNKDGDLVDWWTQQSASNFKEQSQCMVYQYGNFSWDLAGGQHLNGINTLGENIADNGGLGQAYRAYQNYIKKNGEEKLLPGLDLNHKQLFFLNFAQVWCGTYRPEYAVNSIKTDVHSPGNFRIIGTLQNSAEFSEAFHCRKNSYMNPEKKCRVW

H-SLFELGKMIL-OH [SEQ ID NO:1, H2N-SLFELGKMIL-OH]
amount remaining in the medium of HEK293 cells [1]: 29%±3%
relative amount remaining in the medium of endothelial cells at 60 min [2]: 23%±2.4%
NEP activity [3]: significant increase
ECE1 activity [4]: no effect

H-SLFELGKMILQETG-OH [SEQ ID NO:12]
NEP activity [3]: significantly stimulate
ECE1 activity [4]: significantly stimulate

H-SLFELGKMILQETGKN-OH [SEQ ID NO:11]
NEP activity [3]: significantly stimulate
ECE1 activity [4]: significantly stimulate

Ang II: Angiotensin II, potent vasoconstrictor with fibrotic and inflammatory effects; stimulus in EA.hy926 cells (DRVYIHPF; Angiotensin-2; UniProt P01019 25-32, looked up) [reference compound]
Collagen III expression ([5]; EA.hy926 cells, 24 h, Ang II 10 nM alone, or Ang II and 2A (26 μM)): 141±30%
IL-6 expression ([5]; EA.hy926 cells, Ang II 10 nM, 24 h, band density normalised with beta-actin): 152±8%

rhACE2: Recombinant human ACE2 (Cat #933-ZN-010) purchased from R & D systems
Collagen III expression compared to cells treated with Ang II alone ([5]; Ang II 10 nM plus 2A 26 μM and/or ACE2 0.05 ng/μL, 24 h): significantly lower
IL-6 expression compared to cells treated with Ang II alone ([5]; Ang II 10 nM plus peptide 26 μM and/or rhACE2 0.05 ng/μL, 24 h): significantly lower

CC(C)C[C@H](N[C@@H](Cc1cncn1Cc1cc(Cl)cc(Cl)c1)C(=O)O)C(=O)O [MLN-4760, reference compound]
Collagen III expression in the presence of ACE2 inhibitor MLN-4760 [5, 9]: 75±14%
IL-6 expression in the presence of MLN-4760 [5, 9]: no difference

H-SLFELGKMILQETGKNPAKS-OH [SEQ ID NO:9]
NEP activity [3]: significantly stimulate
ECE1 activity (previous studies) [6]: directly increase the activity
NEP activity (previous studies) [7]: directly increase the activity
ECE1 activity [4]: significantly stimulate

H-KILGILFMSE-OH [scrambled control, reference compound]
decrease in Aβ1-21 and increase in Aβ1-12 ([8]; Aβ40 cleavage): not observed
peak area corresponding to Aβ1-12 after 24 h ([8]; Aβ40 cleavage, 24 h): 9.7×10^6±2.1×10^6 arbitrary units
amount of Aβ40 remaining after 4 h (peak area) ([8]; NEP 0.05 ng/μL, Aβ40 0.10 μg/μL, 4 h): 6.4×10^6±1.7×10^6 arbitrary units

H-SLFELGKMILQE-OH [SEQ ID NO:5]
NEP activity [3]: significant increase
ECE1 activity [4]: no effect
